From US20130203709A1, “ACYLSULFONAMIDES AND PROCESSES FOR PRODUCING THE SAME” (priority 2010, published 2013)

target: Mcl-1 (Homo sapiens, UniProt Q07820); assay: fluorescence polarization (FP) assay, disruption of the Mcl-1/BH3 interaction; type: binding; settings: FP assay; read-out: IC50 against Mcl-1
Sequence (Q07820 whole entry): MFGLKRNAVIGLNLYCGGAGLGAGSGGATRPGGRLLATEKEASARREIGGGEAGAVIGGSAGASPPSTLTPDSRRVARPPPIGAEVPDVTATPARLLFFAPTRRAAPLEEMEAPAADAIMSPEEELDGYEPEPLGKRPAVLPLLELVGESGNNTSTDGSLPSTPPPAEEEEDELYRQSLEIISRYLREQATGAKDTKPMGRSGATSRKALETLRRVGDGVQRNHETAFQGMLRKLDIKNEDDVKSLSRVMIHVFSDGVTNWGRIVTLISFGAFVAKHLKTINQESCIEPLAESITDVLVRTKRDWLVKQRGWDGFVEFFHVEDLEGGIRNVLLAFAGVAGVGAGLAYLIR

Row | IC50 [µM] | Compound
1 | 3.3 | CC1(C)CCN(c2ccc(C(=O)NS(=O)(=O)c3ccc(CN(CSc4ccccc4)Cc4ccc5c(c4)OCO5)cc3)cc2)CC1 [SZ31TA2]

same assay, conditions: Mcl-1 PPIM activity relative to SZ31TA2

Row | Compound | fold less active than SZ31TA2
2 | O=C(NS(=O)(=O)c1ccc(CN(CCSc2ccccc2)Cc2c(F)cccc2Cl)cc1)c1ccccc1 [SZ15TA1] | approximately 10 fold

same assay, conditions: against Mcl-1

Row | ligand efficiency | Compound
3 | 0.159 | CC1(C)CCN(c2ccc(C(=O)NS(=O)(=O)c3ccc(CN(CSc4ccccc4)Cc4ccc5c(c4)OCO5)cc3)cc2)CC1 [SZ31TA2]

same assay, conditions: calculated; Mcl-1 over Bcl-XL

Row | selectivity index | Compound
4 | 19 | O=C(NS(=O)(=O)c1ccc(CN(CSc2ccccc2)Cc2ccc3c(c2)OCO3)cc1)c1ccc(OC(F)(F)F)cc1 [SZ31TA8]

same assay, conditions: reactive fragments (SZ, TA); 100 μM per FIG. 22 legend; FP assay

Row | Compound | % Inhibition Mcl-1 [%]
5 | Cc1ccc(S(=O)(=O)N=[N+]=[N-])cc1 [SZ5] | 1.2 ± 7.9
6 | [N-]=[N+]=NS(=O)(=O)c1ccc(COc2ccccc2[N+](=O)[O-])cc1 [SZ13] | <1
7 | [N-]=[N+]=NS(=O)(=O)c1ccc(Cl)cc1 [SZ18] | <1
8 | COc1ccc(S(=O)(=O)N=[N+]=[N-])cc1 [SZ19] | <1
9 | Cc1ccccc1S(=O)(=O)N=[N+]=[N-] [SZ20] | 6.2 ± 2.1

same assay, conditions: reactive fragments (SZ, TA); 100 μM per FIG. 22 legend; FP assay; read-out: % Inhibition Mcl-1

Row | Compound | inhibition at 100 µM [%]
10 | Cc1ccc(-c2ccc(C(=O)O)cc2)cc1 [SK_2_170] | 6.8 ± 1.3
11 | [N-]=[N+]=NS(=O)(=O)c1ccc2ccc(S(=O)(=O)NCCSc3ccccc3)cc2c1 [SZ6] | 3.4 ± 0.2
12 | CC(C)(C)c1ccc(-c2ccc(S(=O)(=O)N=[N+]=[N-])cc2)cc1 [SZ8] | < 1
13 | COc1cc2c(cc1OC)C(c1ccccc1)N(Cc1ccc(S(=O)(=O)N=[N+]=[N-])cc1)CC2 (stereo not shown) [SZ11] | < 1
14 | CN(C)c1cccc2c(S(=O)(=O)N=[N+]=[N-])cccc12 [SZ21] | 49.3 ± 3.3
15 | [N-]=[N+]=NS(=O)(=O)CCN1CCCC2CCCCC21 (stereo not shown) [SZ22] | 1.2 ± 1.2
16 | COc1cc2c(cc1OC)C(c1ccccc1)N(CCS(=O)(=O)N=[N+]=[N-])CC2 (stereo not shown) [SZ27] | 13.9 ± 0.05
17 | [N-]=[N+]=NS(=O)(=O)c1ccc(CN(CCSc2ccccc2)Cc2ccc3c(c2)OCO3)cc1 [SZ31] | < 1
18 | CC1(C)CCN(c2ccc(C(=O)O)cc2)CC1 [TA2] | 6.8 ± 6.7

Continued, values first:

Row | inhibition at 100 µM [%] | Compound
19 | < 1 | CC(=O)Nc1ccc(S(=O)(=O)N=[N+]=[N-])cc1 [SZ3]
20 | < 1 | [N-]=[N+]=NS(=O)(=O)c1ccc(CN(CCSc2ccccc2)Cc2ccc(S(N)(=O)=O)cc2)cc1 [SZ10]
21 | < 1 | [N-]=[N+]=NS(=O)(=O)c1ccc(CNc2cccc([N+](=O)[O-])c2)cc1 [SZ12]
22 | 2.1 ± 3.3 | [N-]=[N+]=NS(=O)(=O)c1ccc(COc2ccc3c(=O)cc(-c4ccccc4)oc3c2)cc1 [SZ14]
23 | 25.1 ± 0.7 | [N-]=[N+]=NS(=O)(=O)c1ccc(CN(CCSc2ccccc2)Cc2c(F)cccc2Cl)cc1 [SZ15]
24 | 1.3 ± 2.4 | [N-]=[N+]=NS(=O)(=O)c1ccc(-c2ccc(C(F)(F)F)cc2)cc1 [SZ16B]
25 | 4 ± 1.6 | COc1cccc(CN(CCSc2ccccc2)Cc2ccc(S(=O)(=O)N=[N+]=[N-])cc2)c1 [SZ17]
26 | 3.6 ± 5.2 | [N-]=[N+]=NS(=O)(=O)CCN1CCc2ccccc2C1 [SZ23]
27 | 2.7 ± 7.5 | [N-]=[N+]=NS(=O)(=O)CCN1CCC(Cc2ccccc2)CC1 [SZ24]
28 | < 1 | [N-]=[N+]=NS(=O)(=O)CCN1CCN(Cc2ccc3c(c2)OCO3)CC1 [SZ25]
29 | < 1 | [N-]=[N+]=NS(=O)(=O)CCN(Cc1ccccc1)Cc1ccccc1 [SZ26]
30 | < 1 | [N-]=[N+]=NS(=O)(=O)CCN(CCSc1ccccc1)Cc1ccc2c(c1)OCO2 [SZ28]
31 | < 1 | CCN(CC)c1ccc(CNc2ccc(S(=O)(=O)N=[N+]=[N-])cc2)cc1 [SZ30]

target: Bcl-XL (Homo sapiens, UniProt Q07817); assay: fluorescence polarization (FP) assay, disruption of the Bcl-XL/BH3 interaction; type: binding; settings: reactive fragments (SZ, TA); 100 μM per FIG. 22 legend; FP assay
Sequence (Q07817 whole entry, the tested form may be a part): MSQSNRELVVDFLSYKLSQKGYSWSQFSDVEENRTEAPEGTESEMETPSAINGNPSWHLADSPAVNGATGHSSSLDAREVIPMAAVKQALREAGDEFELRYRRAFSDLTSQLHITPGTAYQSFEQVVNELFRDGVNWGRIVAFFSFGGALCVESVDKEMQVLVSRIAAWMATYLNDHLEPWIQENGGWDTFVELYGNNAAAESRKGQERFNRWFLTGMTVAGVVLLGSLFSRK

Row | Compound | % Inhibition Bcl-XL [%]
32 | Cc1ccc(S(=O)(=O)N=[N+]=[N-])cc1 [SZ5] | 2.3 ± 1.1
33 | [N-]=[N+]=NS(=O)(=O)c1ccc(COc2ccccc2[N+](=O)[O-])cc1 [SZ13] | 3.8 ± 4.1
34 | [N-]=[N+]=NS(=O)(=O)c1ccc(Cl)cc1 [SZ18] | <1
35 | COc1ccc(S(=O)(=O)N=[N+]=[N-])cc1 [SZ19] | <1
36 | Cc1ccccc1S(=O)(=O)N=[N+]=[N-] [SZ20] | 1.4 ± 1.6

same assay, conditions: reactive fragments (SZ, TA); 100 μM per FIG. 22 legend; FP assay; read-out: % Inhibition Bcl-XL

Row | Compound | inhibition at 100 µM [%]
37 | Cc1ccc(-c2ccc(C(=O)O)cc2)cc1 [SK_2_170] | 7 ± 13
38 | [N-]=[N+]=NS(=O)(=O)c1ccc2ccc(S(=O)(=O)NCCSc3ccccc3)cc2c1 [SZ6] | 4.6 ± 4.7
39 | CC(C)(C)c1ccc(-c2ccc(S(=O)(=O)N=[N+]=[N-])cc2)cc1 [SZ8] | 2.2 ± 0.7
40 | COc1cc2c(cc1OC)C(c1ccccc1)N(Cc1ccc(S(=O)(=O)N=[N+]=[N-])cc1)CC2 (stereo not shown) [SZ11] | < 1
41 | CN(C)c1cccc2c(S(=O)(=O)N=[N+]=[N-])cccc12 [SZ21] | 1.1
42 | [N-]=[N+]=NS(=O)(=O)CCN1CCCC2CCCCC21 (stereo not shown) [SZ22] | < 1
43 | COc1cc2c(cc1OC)C(c1ccccc1)N(CCS(=O)(=O)N=[N+]=[N-])CC2 (stereo not shown) [SZ27] | 4 ± 0.1
44 | [N-]=[N+]=NS(=O)(=O)c1ccc(CN(CCSc2ccccc2)Cc2ccc3c(c2)OCO3)cc1 [SZ31] | < 1
45 | CC1(C)CCN(c2ccc(C(=O)O)cc2)CC1 [TA2] | < 1

Continued, values first:

Row | inhibition at 100 µM [%] | Compound
46 | 6.7 ± 4.5 | CC(=O)Nc1ccc(S(=O)(=O)N=[N+]=[N-])cc1 [SZ3]
47 | 1.9 ± 3.8 | [N-]=[N+]=NS(=O)(=O)c1ccc(CN(CCSc2ccccc2)Cc2ccc(S(N)(=O)=O)cc2)cc1 [SZ10]
48 | < 1 | [N-]=[N+]=NS(=O)(=O)c1ccc(CNc2cccc([N+](=O)[O-])c2)cc1 [SZ12]
49 | 7.9 ± 5.8 | [N-]=[N+]=NS(=O)(=O)c1ccc(COc2ccc3c(=O)cc(-c4ccccc4)oc3c2)cc1 [SZ14]
50 | 10 ± 0.9 | [N-]=[N+]=NS(=O)(=O)c1ccc(CN(CCSc2ccccc2)Cc2c(F)cccc2Cl)cc1 [SZ15]
51 | 1.1 ± 1.2 | [N-]=[N+]=NS(=O)(=O)c1ccc(-c2ccc(C(F)(F)F)cc2)cc1 [SZ16B]
52 | 2.6 ± 7.8 | COc1cccc(CN(CCSc2ccccc2)Cc2ccc(S(=O)(=O)N=[N+]=[N-])cc2)c1 [SZ17]
53 | 3.3 ± 2.1 | [N-]=[N+]=NS(=O)(=O)CCN1CCc2ccccc2C1 [SZ23]
54 | < 1 | [N-]=[N+]=NS(=O)(=O)CCN1CCC(Cc2ccccc2)CC1 [SZ24]
55 | < 1 | [N-]=[N+]=NS(=O)(=O)CCN1CCN(Cc2ccc3c(c2)OCO3)CC1 [SZ25]
56 | < 1 | [N-]=[N+]=NS(=O)(=O)CCN(Cc1ccccc1)Cc1ccccc1 [SZ26]
57 | < 1 | [N-]=[N+]=NS(=O)(=O)CCN(CCSc1ccccc1)Cc1ccc2c(c1)OCO2 [SZ28]
58 | < 1 | CCN(CC)c1ccc(CNc2ccc(S(=O)(=O)N=[N+]=[N-])cc2)cc1 [SZ30]
